Assay results: US5902794A (priority 1997, dated 1999)

Legend:
[1] = test system: breast and colon cancer cell lines; test: cell cycle progression of breast and colon cancer cell lines; type: cell-based, human; conditions: vs untreated control cells
Procedure: (§1) DNA histograms were generated on FACS II by using the DNA intercalating dye propidium iodide as described by Braylan et al. (Cytometry 2: 337-343, 1982). The percentage of cells in each cycle phase was calculated by using a PDP-11/34 computer and software as described by Neckers et al. (Mol. Cell. Biol. 6: 4244-4250, 1986).
A determination was made whether the reduced cell proliferation observed in the cancer cell lines after treatment with the compounds of the present invention is due to a specific block in one phase of the cell cycle.

[2] = test system: p21 ras protein (MCF-7 cells); test: Western blotting of p21 ras protein in MCF-7 cells; type: cell-based, human; conditions: 5 microM
Procedure: (§2) Western blotting of p21 protein was performed as described below. […] V is cell lysate from Ha-MuSV-transformed NIH3T3 clone 13-3B-4. M, marker proteins of known molecular weight.
Cellular proteins present in cell extracts were separated by 12% SDS-PAGE and transferred to nitrocellulose sheets in transfer buffer (25 mM Tris, 192 mM glycine, 20% methanol, pH 7.4). Nitrocellulose sheets were washed and first incubated with 3% bovine serum albumin in NTE-NP40 (50 mM Tris-HCl, pH 7.5, 150 mM NaCl, 2 mM EDTA, 0.1% Nonidet P-40) for three hours at 37° C. and then sequentially incubated with medium containing p21 monoclonal antiserum Y13-259 directed against the Ha-MuSV-encoded p21 for sixteen hours at 4° C., rabbit anti-rat IgG for 2.5 hours in an ice-water bath, and 5×10^5 cpm/ml ^125 I-protein A for one hour in an ice-water bath. The nitrocellulose sheets were air-dried and exposed to Kodak XAR film for 12-36 hours at -20° C. Comparison of the resulting autoradiograms with others in which normal rat serum was substituted for p21 monoclonal antibody permitted identification of p21. To provide a reference p21, cell lysates were prepared from NIH 3T3 clone 13-3B-4 that had been transfected with Ha-MuSV DNA.
The levels of p21 protein are expressed relative to the p21 level in the untreated control cells, which is set equal to 1.0 O.D.

MCF-7 cells = test: growth of MCF-7 cells; type: cell-based, human; conditions: 5 microM
Procedure: as §2
(§3) All breast cancer cell lines were grown in IMEM supplemented with 10% fetal bovine serum, 20 mM HEPES, penicillin-streptomycin, and extra glutamine. Colon carcinoma cell lines were grown in EMEM supplemented with 10% FBS, EMEM, NEAA, HEPES 20 mM, extra glutamine, and penicillin-streptomycin. The cells were grown at 37° C. in humidified incubators in an atmosphere of 5% CO2.
For cell growth experiments, 2-3×10^5 cells/60 mm dish were seeded, and 24 hours later (Day 0), the medium was removed, and fresh medium and the additives were added then and every 48 hours thereafter The compounds of the present invention were added using 100× concentrated stock solutions. At desired times, cell counts in duplicate were performed on a Coulter counter after harvesting the cells with gentle trypsinization.

[3] = test system: R^I cAMP receptor protein (Molt-4); test: R^I cAMP receptor protein in Molt-4 leukemic cells; type: cell-based, human; conditions: growth-arrested by 8-Cl-adenosine (5 micromol/L)
Source text: (§4) M marker proteins of known molecular weight. […] The resulting supernatants were used as cell lysates. […] ND=nondetectable.

[4] = test system: LS-174T colon cancer cells; test: cell cycle analysis, LS-174T; type: cell-based, human; conditions: 8-Cl-adenosine 5 μM, 3 days, two separate experiments
Procedure: as §1
Breast (MCF-7, MDA-MB-231) and colon (LS-174T) cancer cells in
log phase (untreated control) and 3 days after treatment with
(5 μM) were analyzed for DNA content by flow cytometric analysis

c-myc protein = c-myc protein level, Western blotting (FIG. 9B); type: cell-based, human; conditions: growth-arrested by 8-Cl-adenosine (5 micromol/L)
Procedure: The cells were grown in suspension culture in RPMI 1640 medium supplemented with 10% fetal bovine serum, penicillin (50 U/ml), streptomycin ([…]), 10 mmol/L HEPES buffer, and extra glutamine. […] Surface antigen analysis of HL-60 cells was performed by flow cytometry using a panel of monoclonal antibodies reactive with either myeloid cells or monocytic cells. Terminal deoxynucleotidyl transferase (TdT) was assayed by an immunoperoxidase method using a TdT fluorescence kit. Western blotting of c-myc protein was performed using c-myc antibody 15206D11 (Scripps Clinic and Research Foundation, LaJolla, Calif.).
as §4

[5] = test system: LS-174T colon cancer line; test: growth inhibition and release from inhibition, LS-174T (FIG. 3); type: cell-based, human
Procedure: 1×10^5 cells/60 mm dish were seeded, and 24 hours later (Day 0), the medium was removed and fresh medium and additives were added then and every 48 hours thereafter. […] The triplicate cell count for each experimental point never varied by more than 10%.
as §3

[6] = test system: two mammary, one lung, and one colon tumor; test: human tumor xenografts in athymic mice; type: in vivo; conditions: seven day intraperitoneal infusions
Procedure: (§5) Based on the findings with the L1210 leukemia model, the efficacy of the 8-Cl-cAMP-Na+ infusions were evaluated in advanced-stage human tumor xenograft models. Tumor fragments of approximately 14 mg were implanted subcutaneously in athymic CD-1 female mice and seven day intraperitoneal infusions of the cyclic nucleotide were initiated three weeks later when mean tumor weights had reached 300-400 mg. Tumor measurements were recorded on the initial day of treatment (staging day) and one day after treatment was completed (staging day+7), and were used to calculate changes in tumor weights.

[7] = test system: MDA-MB-231 mammary carcinoma; test: growth of MDA-MB-231 human mammary tumor xenograft; type: in vivo; conditions: 7 days, staging day
Procedure: as §5
(§6) *Mean tumor weight per group on staging day.
(§7) $Mean tumor weight per group on staging day +7.
(§8) **Change in *test tumor wt (finalinitial)/initial test tumor wt. Used
(§9) where test tumor size was reduced during treatment. Denoted by negative
(§10) $$Change in test tumor wt/change in control tumor wt. Used where test
(§11) tumor size increased during treatment. Denoted by positive value.

human LoVo colon tumors = test: subcutaneous infusion in athymic NCR-NU mice bearing human LoVo colon tumors; type: in vivo; conditions: s.c. infusion approx. 42 mg/kg/day (1 mg/mouse), seven days
LX-1-Lung carcinoma = test: growth of LX-1 human lung tumor xenograft; type: in vivo; conditions: 7 days, staging day
Procedure: as §5, §6, §7
(§12) **Change in test tumor wt (final initial)/initial test tumor wt. Used
(§13) where tumor size was reduced during treatment. Denoted by negative value.
as §10, §11

MX-1 mammary carcinoma = test: growth of MX-1 human mammary tumor xenograft; type: in vivo; conditions: 7 days, staging day
Procedure: as §5, §6, §7, §8, §9, §10, §11

murine leukemia L1210 = test: life span of L1210-inoculated BDF1 mice; type: in vivo, mouse; conditions: for toxicity remark: ip, 24-hr infusion, day 1-5
Source text: | Infusions by Harvard pumps.

LOVO Colon carcinoma = test: growth of LOVO human colon tumor xenograft; type: in vivo; conditions: 7 days; for Initial Mean Tumor Wt: staging day
Procedure: as §5, §6, §7, §12, §13, §10, §11

[8] = lethality in non-tumored BDF1 mice, single i.p. injection; type: in vivo, mouse; conditions: qd, day 1; for Toxic deaths, No. killed/No. treated: ip
Source text: Influence of 8-Cl-cAMP-Na^+ on the life span of non-tumor
BDF1 mice when delivered i.p. by bolus injection

Nc1ncnc2c1nc(Cl)n2[C@@H]1O[C@H](CO)[C@@H](O)[C@H]1O [8-Cl-adenosine, reference compound]
fractions of cells in G1, S and G2/M phases, in words [1]: appreciable increase of the cell population in Gl phase with a marked reduction in S-phase | p21 level, in words [2]: did not appreciably affect the p21 level | growth inhibition, in words (MCF-7 cells): strong growth inhibition | decrease in R^I receptor level [3]: not observed | % Cell population in G1 [4]: 72,68% | % Cell population in G2 M [4]: 20,18% | % Cell population in S [4]: 8,14% | activity at 5 µM ([4]; Homo sapiens, LS174T, 72 h, read-out: % Growth): 30.3% | decrease in c-myc protein level (c-myc protein): not observed | mechanism of growth inhibition / cell viability [5]: cell killing | cell growth during treatment ([5]; 8-Cl-cAMP 10 microM or 8-Cl-adenosine 5 microM): marked reduction in cell growth | growth after cessation of treatment ([5]; after removal of additives): remained growth-inhibited and did not resume their growth up to two weeks

Nc1ncnc2c1nc(Cl)n2[C@@H]1O[C@@H]2COP(=O)(O)O[C@H]2[C@H]1O [8-Cl-cAMP-Na^+]
tumor growth during infusion, in words [6]: tumor stasis during treatment | Initial Mean Tumor Wt ([7]; 37 mg/kg/day ip infusion): 367 mg | Initial Mean Tumor Wt ([7]; 62 mg/kg/day ip infusion): 375 mg | Initial Mean Tumor Wt ([7]; 104 mg/kg/day ip infusion): 367 mg | toxicity (human LoVo colon tumors): appeared to be toxic | Initial Mean Tumor Wt (LX-1-Lung carcinoma; 37 mg/kg/day ip infusion): 330 mg | Initial Mean Tumor Wt (LX-1-Lung carcinoma; 62 mg/kg/day ip infusion): 327 mg | Initial Mean Tumor Wt (LX-1-Lung carcinoma; 104 mg/kg/day ip infusion): 324 mg | Initial Mean Tumor Wt (MX-1 mammary carcinoma; 62 mg/kg/day ip infusion): 337 mg | Initial Mean Tumor Wt (MX-1 mammary carcinoma; 104 mg/kg/day ip infusion): 346 mg | Initial Mean Tumor Wt (MX-1 mammary carcinoma; 173 mg/kg/day ip infusion): 375 mg | mice killed (footnote) (murine leukemia L1210; 288 mg/kg, infused): 2 to 5 mice | toxicity remark (murine leukemia L1210; 288 mg/kg/day): toxic | toxicity remark (murine leukemia L1210; 480 mg/kg/day): toxic | toxicity remark (murine leukemia L1210; 800 mg/kg/day): toxic | lethality (footnote) (murine leukemia L1210; 800 and 480 mg/kg, infused): lethally toxic for all treated mice | % ΔT/T or % ΔT/ΔC (LOVO Colon carcinoma; 37 mg/kg/day ip infusion): -01% | Initial Mean Tumor Wt (LOVO Colon carcinoma; 37 mg/kg/day ip infusion): 288 mg | % ΔT/T or % ΔT/ΔC (LOVO Colon carcinoma; 62 mg/kg/day ip infusion): -01% | Initial Mean Tumor Wt (LOVO Colon carcinoma; 62 mg/kg/day ip infusion): 293 mg | Initial Mean Tumor Wt (LOVO Colon carcinoma; 104 mg/kg/day ip infusion): 288 mg | Toxic deaths, No. killed/No. treated ([8]; 22 mg/kg/inj): 0 | Toxic deaths, No. killed/No. treated ([8]; 37 mg/kg/inj): 0 | Toxic deaths, No. killed/No. treated ([8]; 62 mg/kg/inj): 0 | Toxic deaths, No. killed/No. treated ([8]; 104 mg/kg/inj): 0 | mice killed (footnote) ([8]; 173 mg/kg): 2 of 5 | Toxic deaths, No. killed/No. treated ([8]; 173 mg/kg/inj): 2/5 | Toxic deaths, No. killed/No. treated ([8]; 288 mg/kg/inj): 5/5 | Toxic deaths, No. killed/No. treated ([8]; 480 mg/kg/inj): 5/5 | lethality (footnote) ([8]; 480 and 288 mg/kg): lethally toxic for all treated mice | lethality (footnote) ([8]; dosages lower than 173 mg/kg): not lethally
